Measured values reported in US20210261642A1, “SOLUBILITY OF GLP-1 PEPTIDE” (Novo Nordisk A/S, priority 2017, published 2021).

Test: Assay (I): Determination of Solubility (96-well plate, pH 3.0-11.0, organic solvent 0-70% w/w, UV absorption at 280 nm)
Assay type: physicochemical
Conditions: for Peptide concentration after 180 min / Peptide concentration after 24 h / Peptide concentration after 5 min: Method 1; for GLP-1 peptide concentration: Method 2 (precipitation), 5° C.
Description: Assay (I): Determination of Solubility
96-Well Plate Preparation
96-well plates containing target peptide in a solid form were prepared in one of two ways:
Method 1 (evaporation): Addition of 100 μl stock solution of said peptide at a concentration of 4-6 mg/ml to each well of a 96-well half area plate (150 μl well size). Subsequently the solvent was evaporated by applying a vacuum until the solvent was completely removed.
Method 2 (precipitation): Addition of a certain volume of a stock solution of said peptide containing to each well of a 96-well half area plate followed by the addition of a certain volume of concentrated phosphoric acid to obtain a pH of 4.6 followed by addition of a certain volume of ethanol resulting in a final ethanol concentration of 20% v/v. Subsequently the plate was stored at 4° C. for 1 h and then centrifuged at 4,000 rpm for 20 min. Finally the supernatant was removed. The concentration of the stock solution was chosen in a way that the final amount of peptide after supernatant removal was >0.4 mg per well.
In both cases the stock solution was prepared by adding de-ionized water to a certain amount of powder of said peptide followed by a stepwise addition of small amounts of a concentrated sodium hydroxide solution until said peptide was completely in solution.
To determine solubility of a target peptide at different pH and organic solvent concentrations, two different buffer systems were used in independent experiments to cover the whole range from pH 3.0 to pH 11.0. Buffer system 1 covers pH 3.0-7.5 and buffer system 2 covers pH 7.5-11.0. For each buffer system 96 different solvent compositions were premixed in the following way: • 1. A low pH buffer (adjusted to either pH 3.0 or pH 7.5) and a high pH buffer (adjusted to either pH 7.5 or pH 11.0) were mixed at 8 different ratios to obtain values between pH 3.0 and pH 7.5 or pH 7.5 and pH 11.0, respectively. The total volume after mixing was 300 μl. • 2. 12 different amounts of organic solvent were then added to these buffers to obtain organic solvent (e.g. ethanol) concentrations between 0 and 70% w/w. • 3. Water was then added to obtain a total weight of 1.0 g of solvent in each well.
After preparing the 96 different solvent systems, 100 μl of each system was transferred to the 96-well plate containing the solid form of the target peptide (prepared as described in the section “96-well plate preparation”). The plate was then stored at a given temperature (between 5° C. and 70° C.) for a given time on a rotating shaker set to 400 rpm. At regular time intervals the plate was centrifuged (4,000 rpm for 10 min) and a 10 μl sample was taken from each well. The samples were then analysed by UV absorption at 280 nm for peptide quantification. Peptide concentration results are given as UV absorption at 280 nm of the sample subtracted UV absorption at 280 nm of a well comprising 10 μl water.
The buffers used were as follows: • Buffer system 1 (for the pH range from pH 3.0-7.5)
• Buffer system 2 (for the pH ranae from pH 7.5-11.0)
Solubility of liraglutide was determined using Assay (I) described herein. Liraglutide was prepared using Method 1 (evaporation) or Method 2 (precipitation) as described in subsection “96-well plate preparation”.

CCCCCCCCCCCCCCCC(=O)N[C@@H](CCC(=O)NCCCC[C@H](NC(=O)[C@H](C)NC(=O)[C@H](C)NC(=O)[C@H](CCC(N)=O)NC(=O)CNC(=O)[C@H](CCC(=O)O)NC(=O)[C@H](CC(C)C)NC(=O)[C@H](Cc1ccc(O)cc1)NC(=O)[C@H](CO)NC(=O)[C@H](CO)NC(=O)[C@@H](NC(=O)[C@H](CC(=O)O)NC(=O)[C@H](CO)NC(=O)[C@@H](NC(=O)[C@H](Cc1ccccc1)NC(=O)[C@@H](NC(=O)CNC(=O)[C@H](CCC(=O)O)NC(=O)[C@H](C)NC(=O)[C@@H](N)Cc1cnc[nH]1)[C@@H](C)O)[C@@H](C)O)C(C)C)C(=O)N[C@@H](CCC(=O)O)C(=O)N[C@@H](Cc1ccccc1)C(=O)N[C@H](C(=O)N[C@@H](C)C(=O)N[C@@H](Cc1c[nH]c2ccccc12)C(=O)N[C@@H](CC(C)C)C(=O)N[C@H](C(=O)N[C@@H](CCCNC(=N)N)C(=O)NCC(=O)N[C@@H](CCCNC(=N)N)C(=O)NCC(=O)O)C(C)C)[C@@H](C)CC)C(=O)O [liraglutide, Arg34,Lys26-(N-epsilon-(gamma-L-glutamyl(N-alfa-hexadecanoyl)))-GLP-1(7-37)]
0.4 mg/mL: Peptide concentration after 24 h (MeCN 70.0% w/w, pH 5.6, 5° C.) | Peptide concentration after 180 min (MeCN 70.0% w/w, pH 7.5, 5° C.) | Peptide concentration after 180 min (MeCN 70.0% w/w, pH 8.0, 5° C.) | Peptide concentration after 180 min (MeCN 70.0% w/w, pH 8.5, 5° C.) | Peptide concentration after 180 min (MeCN 70.0% w/w, pH 9.0, 5° C.) | Peptide concentration after 24 h (MeCN 70.0% w/w, pH 10.0, 5° C.) | Peptide concentration after 24 h (MeCN 70.0% w/w, pH 10.5, 5° C.)
1.1 mg/mL: Peptide concentration after 5 min (MeCN 57.3% w/w, pH 10.5, 5° C.) | Peptide concentration after 180 min (MeCN 57.3% w/w, pH 10.5, 5° C.)
1.8 mg/mL: Peptide concentration after 24 h (MeCN 57.3% w/w, pH 10.0, 5° C.)
4.0 mg/mL: Peptide concentration after 24 h (MeCN 57.3% w/w, pH 9.5, 5° C.)
1.6 mg/mL: Peptide concentration after 180 min (MeCN 57.3% w/w, pH 8.0, 5° C.) | Peptide concentration after 180 min (MeCN 57.3% w/w, pH 8.5, 5° C.) | Peptide concentration after 180 min (MeCN 57.3% w/w, pH 10.0, 5° C.) | Peptide concentration after 24 h (MeCN 57.3% w/w, pH 10.5, 5° C.)
0.7 mg/mL: Peptide concentration after 5 min (MeCN 50.9% w/w, pH 11.0, 5° C.) | Peptide concentration after 24 h (MeCN 63.6% w/w, pH 10.0, 5° C.) | Peptide concentration after 24 h (MeCN 70.0% w/w, pH 8.5, 5° C.)
3.4 mg/mL: Peptide concentration after 24 h (MeCN 57.3% w/w, pH 8.0, 5° C.) | GLP-1 peptide concentration (MeCN 57.3% w/w, pH 9.00, 180 min, after removal of outliers) | GLP-1 peptide concentration (MeCN 57.3% w/w, pH 9.00, 180 min, before removal of outliers)
0.9 mg/mL: Peptide concentration after 5 min (MeCN 50.9% w/w, pH 10.5, 5° C.) | Peptide concentration after 5 min (MeCN 57.3% w/w, pH 11.0, 5° C.) | Peptide concentration after 180 min (MeCN 63.6% w/w, pH 9.0, 5° C.) | Peptide concentration after 24 h (MeCN 70.0% w/w, pH 9.0, 5° C.)
>4.0 mg/mL: Peptide concentration after 24 h (MeCN 50.9% w/w, pH 8.0, 5° C.) | Peptide concentration after 24 h (MeCN 50.9% w/w, pH 8.5, 5° C.) | Peptide concentration after 24 h (MeCN 50.9% w/w, pH 9.0, 5° C.) | Peptide concentration after 24 h (MeCN 50.9% w/w, pH 9.5, 5° C.) | Peptide concentration after 24 h (MeCN 50.9% w/w, pH 10.0, 5° C.) | Peptide concentration after 24 h (MeCN 50.9% w/w, pH 11.0, 5° C.) | Peptide concentration after 24 h (MeCN 57.3% w/w, pH 9.0, 5° C.)
1.5 mg/mL: Peptide concentration after 5 min (MeCN 50.9% w/w, pH 10.0, 5° C.)
3.7 mg/mL: Peptide concentration after 24 h (MeCN 57.3% w/w, pH 8.5, 5° C.)
0.3 mg/mL: Peptide concentration after 5 min (MeCN 63.6% w/w, pH 8.0, 5° C.) | Peptide concentration after 180 min (MeCN 63.6% w/w, pH 10.0, 5° C.) | Peptide concentration after 180 min (MeCN 63.6% w/w, pH 10.5, 5° C.) | Peptide concentration after 180 min (MeCN 70.0% w/w, pH 5.6, 5° C.) | Peptide concentration after 180 min (MeCN 70.0% w/w, pH 6.2, 5° C.) | Peptide concentration after 180 min (MeCN 70.0% w/w, pH 6.9, 5° C.) | Peptide concentration after 5 min (MeCN 70.0% w/w, pH 7.5, 5° C.) | Peptide concentration after 5 min (MeCN 70.0% w/w, pH 8.0, 5° C.) | Peptide concentration after 180 min (MeCN 70.0% w/w, pH 9.5, 5° C.) | Peptide concentration after 180 min (MeCN 70.0% w/w, pH 10.0, 5° C.)
0.5 mg/mL: Peptide concentration after 5 min (MeCN 57.3% w/w, pH 8.0, 5° C.) | Peptide concentration after 5 min (MeCN 57.3% w/w, pH 8.5, 5° C.) | Peptide concentration after 5 min (MeCN 57.3% w/w, pH 9.0, 5° C.) | Peptide concentration after 180 min (MeCN 63.6% w/w, pH 9.5, 5° C.) | Peptide concentration after 5 min (MeCN 63.6% w/w, pH 11.0, 5° C.) | Peptide concentration after 24 h (MeCN 70.0% w/w, pH 6.2, 5° C.) | Peptide concentration after 24 h (MeCN 70.0% w/w, pH 6.9, 5° C.) | Peptide concentration after 24 h (MeCN 70.0% w/w, pH 9.5, 5° C.) | Peptide concentration after 24 h (MeCN 70.0% w/w, pH 11.0, 5° C.) | GLP-1 peptide concentration (MeCN 57.3% w/w, pH 9.50, 5 min, after removal of outliers)
1.9 mg/mL: Peptide concentration after 180 min (MeCN 57.3% w/w, pH 9.0, 5° C.)
2.2 mg/mL: Peptide concentration after 180 min (MeCN 50.9% w/w, pH 8.0, 5° C.) | Peptide concentration after 180 min (MeCN 50.9% w/w, pH 11.0, 5° C.)
2.4 mg/mL: Peptide concentration after 180 min (MeCN 50.9% w/w, pH 9.5, 5° C.)
0.6 mg/mL: Peptide concentration after 5 min (MeCN 50.9% w/w, pH 8.5, 5° C.) | Peptide concentration after 5 min (MeCN 50.9% w/w, pH 9.0, 5° C.) | Peptide concentration after 180 min (MeCN 63.6% w/w, pH 8.0, 5° C.) | Peptide concentration after 5 min (MeCN 63.6% w/w, pH 8.5, 5° C.) | Peptide concentration after 24 h (MeCN 63.6% w/w, pH 10.5, 5° C.) | Peptide concentration after 180 min (MeCN 63.6% w/w, pH 11.0, 5° C.) | Peptide concentration after 24 h (MeCN 70.0% w/w, pH 8.0, 5° C.) | GLP-1 peptide concentration (MeCN 57.3% w/w, pH 9.00, 5 min, after removal of outliers) | GLP-1 peptide concentration (MeCN 57.3% w/w, pH 9.00, 5 min, before removal of outliers)
3.8 mg/mL: Peptide concentration after 24 h (MeCN 50.9% w/w, pH 10.5, 5° C.)
2.6 mg/mL: Peptide concentration after 180 min (MeCN 50.9% w/w, pH 8.5, 5° C.) | Peptide concentration after 180 min (MeCN 50.9% w/w, pH 10.0, 5° C.) | Peptide concentration after 24 h (MeCN 57.3% w/w, pH 11.0, 5° C.) | Peptide concentration after 24 h (MeCN 63.6% w/w, pH 9.0, 5° C.)
2.1 mg/mL: Peptide concentration after 180 min (MeCN 50.9% w/w, pH 10.5, 5° C.) | Peptide concentration after 24 h (MeCN 63.6% w/w, pH 8.5, 5° C.)
0.2 mg/mL: Peptide concentration after 5 min (MeCN 63.6% w/w, pH 9.5, 5° C.) | Peptide concentration after 5 min (MeCN 63.6% w/w, pH 10.0, 5° C.) | Peptide concentration after 5 min (MeCN 63.6% w/w, pH 10.5, 5° C.) | Peptide concentration after 5 min (MeCN 70.0% w/w, pH 5.6, 5° C.) | Peptide concentration after 5 min (MeCN 70.0% w/w, pH 6.2, 5° C.) | Peptide concentration after 5 min (MeCN 70.0% w/w, pH 6.9, 5° C.) | Peptide concentration after 5 min (MeCN 70.0% w/w, pH 8.5, 5° C.) | Peptide concentration after 5 min (MeCN 70.0% w/w, pH 9.0, 5° C.) | Peptide concentration after 5 min (MeCN 70.0% w/w, pH 9.5, 5° C.) | Peptide concentration after 5 min (MeCN 70.0% w/w, pH 10.0, 5° C.) | Peptide concentration after 5 min (MeCN 70.0% w/w, pH 10.5, 5° C.) | Peptide concentration after 180 min (MeCN 70.0% w/w, pH 10.5, 5° C.) | Peptide concentration after 5 min (MeCN 70.0% w/w, pH 11.0, 5° C.) | Peptide concentration after 180 min (MeCN 70.0% w/w, pH 11.0, 5° C.)
0.8 mg/mL: Peptide concentration after 180 min (MeCN 63.6% w/w, pH 8.5, 5° C.) | Peptide concentration after 24 h (MeCN 70.0% w/w, pH 7.5, 5° C.)
1.0 mg/mL: Peptide concentration after 5 min (MeCN 50.9% w/w, pH 9.5, 5° C.) | Peptide concentration after 5 min (MeCN 57.3% w/w, pH 9.5, 5° C.)
1.4 mg/mL: Peptide concentration after 5 min (MeCN 57.3% w/w, pH 10.0, 5° C.) | Peptide concentration after 180 min (MeCN 57.3% w/w, pH 11.0, 5° C.) | Peptide concentration after 5 min (MeCN 63.6% w/w, pH 9.0, 5° C.) | Peptide concentration after 24 h (MeCN 63.6% w/w, pH 9.5, 5° C.) | GLP-1 peptide concentration (MeCN 57.3% w/w, pH 9.00, 24 h, after removal of outliers) | GLP-1 peptide concentration (MeCN 57.3% w/w, pH 9.00, 24 h, before removal of outliers)
1.3 mg/mL: Peptide concentration after 24 h (MeCN 63.6% w/w, pH 11.0, 5° C.)
2.0 mg/mL: Peptide concentration after 180 min (MeCN 50.9% w/w, pH 9.0, 5° C.) | Peptide concentration after 180 min (MeCN 57.3% w/w, pH 9.5, 5° C.) | Peptide concentration after 24 h (MeCN 63.6% w/w, pH 8.0, 5° C.)
